Measurements: article PMC4801481 (Biochemistry, 2015)
Where two headings read alike, the source gives them in different places.

Key:
[1] = Solubility of Rev protein; type: physicochemical; conditions: in the absence of RNA
[2] = in the absence of high salt; cited from earlier work
[3] = tested on: stem IA (HIV-1 RRE RNA hairpin); experiment: NMR of Rev complexes with stem IA; type: binding; conditions: 288 K
[4] = tested on: stem IIB (HIV-1 RRE RNA hairpin); experiment: NMR of Rev complexes with stem IIB; type: binding; conditions: 288 K

Substance | solubility [1] | solubility [2] | RNA imino resonances on RevDO binding ([3]; 1D 1H NMR, pH 6.5, 0.1 M KCl) | number of backbone amide resonances ([3]; 1H–15N HSQC, 15N-RevDO bound to IA, 0.4 mM, pH 6.5) | arginine Hε protons ([3]; 1H–15N HSQC, RevDO bound to IA) | 1H–15N HSQC peak appearance ([3]; 15N-RevDO bound to IA, 0.4 mM, pH 6.5) | RNA imino resonances on RevDO binding ([4]; 1D 1H NMR, pH 6.5, 0.1 M KCl) | number of backbone amide resonances ([4]; 1H–15N HSQC, 15N-RevDO bound to IIB, 0.4 mM, pH 6.5) | arginine Hε protons ([4]; 1H–15N HSQC, RevDO bound to IIB) | imino proton of Trp45 ([4]; 1H–15N HSQC, RevDO complexes, IIB versus IA) | 1H–15N HSQC peak appearance ([4]; 15N-RevDO bound to IIB, 0.4 mM, pH 6.5)
Rev protein: viral regulatory protein Rev of HIV-1 | poor solubility of Rev in the absence of RNA | poorly soluble in the absence of high salt |  |  |  |  |  |  |  |  | 
RevDO: Truncated HIV-1 Rev (residues 9–64) with mutated dimerization (L12 → S, L60 → R) and higher-order oligomerization (L18 → Q, I55 → N) surfaces |  |  | almost identical to those obtained with the Rev–ARM peptide | ~40 backbone amide resonances | mostly absent with IA | fewer, broader peaks | almost identical to those obtained with the Rev–ARM peptide | ~50 backbone amide resonances | well resolved with IIB | observed only with IIB | reasonably well-resolved peaks
